Drawing on US20250228239A1, “MOLECULES HAVING PESTICIDAL UTILITY, AND INTERMEDIATES, COMPOSITIONS, AND PROCESSES, RELATED THERETO” (priority 2024, published 2025), this text covers pest or weed control and mortality for 19 compounds.

The subject of assay [1] is Cabbage Looper (Trichoplusia ni, TRIPNI). The experiment in a line: Bioassays on Cabbage Looper (CL), 128-well diet tray assay. The format is in vivo. To be noted: Trichoplusia ni. The gist of the method: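 Diet tray, 2nd instar, 1–5 larvae/well; 50 μg/cm^2 compound surface-applied (acetone:water 90:10), dried; 8 wells/treatment; 25° C, 14:10 L:D, 5–7 d; % mortality, mean of 8 wells.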

The subject of assay [2] is Beet Armyworm (Spodoptera exigua, LAPHEG). The experiment in a line: Bioassays on Beet Armyworm (BAW), 128-well diet tray assay. The format is in vivo. The note with it: Spodoptera exigua. The gist of the method:
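Mortality of second-instar larvae (1–5/well) on artificial diet treated with 50 μg/cm^2 compound, read after 5–7 days at 25° C.; values are means of eight wells.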

[3] abbreviates: Cabbage Looper, rating class, read-out: CL.
Setting [4] is: Beet Armyworm, rating class, read-out: BAW.
[5] abbreviates: Cabbage Looper, Table ABC / ABC-DP rating, read-out: CL rating.
Setting [6] is: Beet Armyworm, Table ABC / ABC-DP rating, read-out: BAW rating.
The mark [7] stands for this setting: Table ABC: Biological Results, species CL, read-out: CL.
The mark [8] stands for this setting: Table ABC: Biological Results, species BAW, read-out: BAW.

Where two headings read alike, the source gives them in different places.

As for `Cc1cc(NC(=O)[C@H]2[C@H](c3ccc(F)c(C(F)(F)F)c3)C2(Cl)Cl)cc(C(=O)Nc2ccc(F)c(N)c2F)c1Cl` [F1458, N-(3-Amino-2,4-difluorophenyl)-2-chloro-5-((1R,3R)-2,2-dichloro-3-(4-fluoro-3-(trifluoromethyl)phenyl)cyclopropane-1-carboxamido)-3-methylbenzamide], the pest or weed control at 50 µg/cm2 in assay [1] (setting [3]) and in assay [2] (setting [4]) was 50 to 100% in each case.

With `O=C(COCC(F)(F)F)Nc1c(F)ccc(NC(=O)c2cc(NC(=O)[C@H]3[C@H](c4ccc(F)c(Cl)c4)C3(Cl)Cl)ccc2Cl)c1F` [F1867, 2-Chloro-5-((1R,3R)-2,2-dichloro-3-(3-chloro-4-fluorophenyl)cyclopropane-1-carboxamido)-N-(2,4-difluoro-3-(2-(2,2,2-trifluoroethoxy)acetamido)phenyl) benzamide], the pest or weed control at 50 µg/cm2 in assay [1] (setting [5]) and in assay [2] (setting [6]) was 50 to 100% throughout.

`O=C(Nc1c(F)ccc(NC(=O)C(F)F)c1F)c1cc(NC(=O)[C@H]2[C@H](c3ccc(F)c(C(F)(F)F)c3)C2(Cl)Cl)cc(F)c1Cl` [F1347, 2-Chloro-5-((1R,3R)-2,2-dichloro-3-(4-fluoro-3-(trifluoromethyl)phenyl)cyclopropane-1-carboxamido)-N-(3-(2,2-difluoroacetamido)-2,6-difluorophenyl)-3-fluorobenzamide]: the pest or weed control at 50 µg/cm2 in assay [1] (setting [7]) and in assay [2] (setting [8]) was 50 to 100% each time.

Take `Cc1cc(NC(=O)[C@H]2[C@H](c3ccc(F)c(C(F)(F)F)c3)C2(Cl)Cl)cc(C(=O)Nc2ccc(F)c(NC(=O)C(F)F)c2F)c1Cl` [F1494, 2-Chloro-5-((1R,3R)-2,2-dichloro-3-(4-fluoro-3-(trifluoromethyl)phenyl)cyclopropane-1-carboxamido)-N-(3-(2,2-difluoroacetamido)-2,4-difluorophenyl)-3-methylbenzamide]: the pest or weed control at 50 µg/cm2 in assay [1] (setting [3]) and in assay [2] (setting [4]) was 50 to 100% throughout.

`Nc1cc(NC(=O)c2cc(NC(=O)[C@H]3[C@H](c4ccc(F)c(C(F)(F)F)c4)C3(Cl)Cl)ccc2Cl)c(F)cc1F` [F1566, N-(5-Amino-2,4-difluorophenyl)-2-chloro-5-((1R,3R)-2,2-dichloro-3-(4-fluoro-3-(trifluoromethyl)phenyl)cyclopropane-1-carboxamido)benzamide]: the pest or weed control at 50 µg/cm2 in assay [1] (setting [3]) and in assay [2] (setting [4]) was 50 to 100% each time.

Turning to `O=C(Nc1ccc(F)cc1F)c1cc(NC(=O)[C@@H]2[C@@H](c3ccc(F)c(F)c3)C2(Cl)Cl)ccc1Cl` [F1751, 2-Chloro-5-((1S,3S)-2,2-dichloro-3-(3,4-difluorophenyl)cyclopropane-1-carboxamido)-N-(2,4-difluorophenyl)benzamide], the pest or weed control at 50 µg/cm2 in assay [1] (setting [3]) and in assay [2] (setting [4]) was 50 to 100% each time.

For `CCO[C@H](C)C(=O)Nc1c(F)ccc(NC(=O)c2cc(NC(=O)[C@H]3[C@H](c4ccc(F)c(C(F)(F)F)c4)C3(Cl)Cl)ccc2Cl)c1F` [F1732, 2-Chloro-5-((1R,3R)-2,2-dichloro-3-(4-fluoro-3-(trifluoromethyl)phenyl)cyclopropane-1-carboxamido)-N-(3-((R)-2-ethoxypropanamido)-2,4-difluorophenyl)benzamide], the pest or weed control at 50 µg/cm2 in assay [1] (setting [3]) and in assay [2] (setting [4]) was 50 to 100% each time.

`Nc1cc(F)ccc1NC(=O)c1cc(NC(=O)[C@H]2[C@H](c3ccc(Cl)c(Cl)c3)C2(Cl)Cl)ccc1Cl` (relative stereo) [DP6, trans-N-(2-amino-4-fluorophenyl)-2-chloro-5-(2,2-dichloro-3-(3,4-dichlorophenyl)cyclopropane-1-carboxamido)benzamide]: the mortality (in general, the percentage killed) at 50 µg/cm2 in assay [1] (168 h, second instar larvae, 50 μg/cm^2 of test molecule on artificial diet, 25° C., five to seven days, average of eight wells, read-out: CL % Control (or Mortality) rating) lay within 50 to 100%; in assay [2] (168 h, second instar larvae, 50 μg/cm^2 of test molecule on artificial diet, 25° C., five to seven days, average of eight wells, read-out: BAW % Control (or Mortality) rating), 50 to 100%. The pest or weed control at 50 µg/cm2 in assay [1] (setting [5]) and in assay [2] (setting [6]) was 50 to 100% in each case.

For `O=C(Nc1cc(NC(=O)C(F)(F)F)c(F)cc1F)c1cc(NC(=O)[C@H]2[C@H](c3cc(Cl)c(Cl)c(Cl)c3)C2(Cl)Cl)ccc1Cl` [F1519, 2-Chloro-5-((1R,3R)-2,2-dichloro-3-(3,4,5-trichlorophenyl)cyclopropane-1-carboxamido)-N-(2,4-difluoro-5-(2,2,2-trifluoroacetamido)phenyl)benzamide], the pest or weed control at 50 µg/cm2 in assay [1] (setting [3]) and in assay [2] (setting [4]) was 50 to 100% in each case.

Turning to `O=C(NCC(F)(F)F)NNC(=O)c1cc(NC(=O)[C@H]2[C@H](c3cc(Cl)cc(Cl)c3)C2(Cl)Cl)ccc1Cl` (relative stereo) [F2535, trans-2-(2-chloro-5-(2,2-dichloro-3-(3,5-dichlorophenyl)cyclopropane-1-carboxamido)benzoyl)-N-(2,2,2-trifluoroethyl)hydrazine-1-carboxamide], the pest or weed control at 50 µg/cm2 in assay [1] (setting [5]) and in assay [2] (setting [6]) was 50 to 100% each time.

As to `CC(C)(C)OC(=O)Nc1c(F)ccc(NC(=O)c2cc(NC(=O)[C@H]3[C@H](c4ccc(Br)c(C(F)(F)F)c4)C3(Cl)Cl)ccc2Cl)c1F` (relative stereo) [F1115, trans-tert-Butyl-(3-(5-(3-(4-bromo-3-(trifluoromethyl)phenyl)-2,2-dichlorocyclopropane-1-carboxamido)-2-chlorobenzamido)-2,6-difluorophenyl)carbamate], the pest or weed control at 50 µg/cm2 in assay [1] (setting [7]) and in assay [2] (setting [8]) was 50 to 100% each time.

`O=C(Nc1ccc(F)c(NC(=O)C(F)(F)C(F)(F)C(F)(F)F)c1F)c1cc(NC(=O)[C@H]2[C@H](c3ccc(Cl)c(Cl)c3)C2(Cl)Cl)ccc1Cl` [F1463, 2-Chloro-5-((1R,3R)-2,2-dichloro-3-(3,4-dichlorophenyl)cyclopropane-1-carboxamido)-N-(2,4-difluoro-3-(2,2,3,3,4,4,4-heptafluorobutanamido)phenyl)benzamide]: the pest or weed control at 50 µg/cm2 in assay [1] (setting [3]) and in assay [2] (setting [4]) was 50 to 100% each time.

As to `Cc1cc(NC(=O)[C@H]2[C@H](c3ccc(F)c(Cl)c3)C2(Cl)Cl)cc(C(=O)Nc2ccc(F)c(N)c2F)c1F` (relative stereo) [F1151, trans-N-(3-Amino-2,4-difluorophenyl)-5-(2,2-dichloro-3-(3-chloro-4-fluorophenyl)cyclopropane-1-carboxamido)-2-fluoro-3-methylbenzamide], the pest or weed control at 50 µg/cm2 in assay [1] (setting [7]) and in assay [2] (setting [8]) was 50 to 100% in each case.

Regarding `COc1c(F)ccc(NC(=O)c2cc(NC(=O)[C@H]3[C@H](c4cc(Cl)cc(Cl)c4)C3(Cl)Cl)ccc2Cl)c1F` (relative stereo) [F1171, trans-2-chloro-5-(2,2-dichloro-3-(3,5-dichlorophenyl)cyclopropane-1-carboxamido)-N-(2,4-difluoro-3-methoxyphenyl)benzamide], the pest or weed control at 50 µg/cm2 in assay [1] (setting [7]) and in assay [2] (setting [8]) was 50 to 100% in each case.

With `CC(F)(F)CCC(=O)Nc1c(F)ccc(NC(=O)c2cc(NC(=O)[C@H]3[C@H](c4ccc(Cl)c(Cl)c4)C3(Cl)Cl)ccc2Cl)c1F` [F1860, 2-Chloro-5-((1R,3R)-2,2-dichloro-3-(3,4-dichlorophenyl)cyclopropane-1-carboxamido)-N-(3-(4,4-difluoropentanamido)-2,4-difluorophenyl)benzamide], the pest or weed control at 50 µg/cm2 in assay [1] (setting [5]) and in assay [2] (setting [6]) was 50 to 100% throughout.

On to `O=C(Nc1c(F)ccc(NC(=O)C(F)(F)F)c1F)c1cc(NC(=O)[C@H]2[C@H](c3cc(Cl)c(Cl)c(Cl)c3)C2(Cl)Cl)cc(F)c1Cl` [F1342, 2-Chloro-5-((1R,3R)-2,2-dichloro-3-(3,4,5-trichlorophenyl)cyclopropane-1-carboxamido)-N-(2,6-difluoro-3-(2,2,2-trifluoroacetamido)phenyl)-3-fluorobenzamide], for which the pest or weed control at 50 µg/cm2 in assay [1] (setting [7]) and in assay [2] (setting [8]) was 50 to 100% throughout.

In the case of `O=C(Nc1c(F)ccc(NC(=O)C(F)(F)F)c1F)c1cc(NC(=O)[C@H]2[C@H](c3cc(Cl)c(Cl)c(Cl)c3)C2(Cl)Cl)ccc1Cl` [F1516, 2-Chloro-5-((1R,3R)-2,2-dichloro-3-(3,4,5-trichlorophenyl)cyclopropane-1-carboxamido)-N-(2,6-difluoro-3-(2,2,2-trifluoroacetamido)phenyl)benzamide], the pest or weed control at 50 µg/cm2 in assay [1] (setting [3]) and in assay [2] (setting [4]) was 50 to 100% each time.

As for `O=C(Nc1ccc(F)c(NC(=O)C(F)(F)F)c1F)c1cc(NC(=O)[C@H]2[C@H](c3ccc(F)c(C(F)(F)F)c3)C2(Cl)Cl)cc(F)c1F` [F1572, 5-((1R,3R)-2,2-Dichloro-3-(4-fluoro-3-(trifluoromethyl)phenyl)cyclopropane-1-carboxamido)-N-(2,4-difluoro-3-(2,2,2-trifluoroacetamido)phenyl)-2,3-difluorobenzamide], the pest or weed control at 50 µg/cm2 in assay [1] (setting [3]) and in assay [2] (setting [4]) was 50 to 100% each time.

Regarding `O=C(Nc1c(F)ccc(NC(=O)C(F)F)c1F)c1cc(NC(=O)[C@H]2[C@H](c3ccc(Cl)c(Cl)c3)C2(Cl)Cl)ccc1F` [F1512, 5-((1R,3R)-2,2-Dichloro-3-(3,4-dichlorophenyl)cyclopropane-1-carboxamido)-N-(3-(2,2-difluoroacetamido)-2,6-difluorophenyl)-2-fluorobenzamide], the pest or weed control at 50 µg/cm2 in assay [1] (setting [3]) and in assay [2] (setting [4]) was 50 to 100% throughout.
